Experimental data as given in ChEMBL document CHEMBL1201862, “PubChem BioAssay data set” (2004).
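Results reflect a 48-hour exposure of cells in 96-well plates to compound at five concentrations. At the GI50, growth is halved.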 Activity calls are given as the source filed them. No stated cut-off is given here; in the data, active = GI50 up to about 1.1 µM and inactive = higher.

Experiments:
Assay in all cases: NCI anticancer screen, dose series, 48 h
786-0 = tested on: 786-0
A498 = tested on: A498
A549 = tested on: A549
ACHN = tested on: ACHN
CAKI-1 = tested on: CAKI-1
CCRF-CEM = tested on: CCRF-CEM
COLO 205 = tested on: COLO 205
DU-145 = tested on: DU-145
EKVX = tested on: EKVX
HCC 2998 = tested on: HCC 2998
HCT-116 = tested on: HCT-116
HCT-15 = tested on: HCT-15
HL-60 = tested on: HL-60
HOP-62 = tested on: HOP-62
HOP-92 = tested on: HOP-92
HT-29 = tested on: HT-29
Hs-578T = tested on: Hs-578T
IGROV-1 = tested on: IGROV-1
K562 = tested on: K562
KM12 = tested on: KM12
LOX IMVI = tested on: LOX IMVI
M14 = tested on: M14
MCF7 = tested on: MCF7
MDA-MB-231 = tested on: MDA-MB-231
MDA-MB-435 = tested on: MDA-MB-435
MDA-N = tested on: MDA-N
MOLT-4 = tested on: MOLT-4
Malme-3M = tested on: Malme-3M
NCI-H226 = tested on: NCI-H226
NCI-H23 = tested on: NCI-H23
NCI-H460 = tested on: NCI-H460
NCI-H522 = tested on: NCI-H522
NCI/ADR-RES = tested on: NCI/ADR-RES
OVCAR-3 = tested on: OVCAR-3
OVCAR-4 = tested on: OVCAR-4
OVCAR-5 = tested on: OVCAR-5
OVCAR-8 = tested on: OVCAR-8
PC-3 = tested on: PC-3
RPMI-8226 = tested on: RPMI-8226
RXF 393 = tested on: RXF 393
SF-268 = tested on: SF-268
SF-295 = tested on: SF-295
SF-539 = tested on: SF-539
SK-MEL-28 = tested on: SK-MEL-28
SK-MEL-2 = tested on: SK-MEL-2
SK-MEL-5 = tested on: SK-MEL-5
SN12C = tested on: SN12C
SNB-19 = tested on: SNB-19
SR = tested on: SR
SW-620 = tested on: SW-620
T47D = tested on: T47D
TK-10 = tested on: TK-10
U-251 = tested on: U-251
UACC-257 = tested on: UACC-257
UACC-62 = tested on: UACC-62
UO-31 = tested on: UO-31
SK-OV-3 = tested on: SK-OV-3
SNB-75 = tested on: SNB-75

Measured: GI50

CC1CC(C)CC(NC2=NCCO2)C1 (stereo unspecified)
inactive: 786-0 > 100 µM | A498 > 100 µM | A549 > 100 µM | ACHN > 100 µM | CAKI-1 > 100 µM | CCRF-CEM > 100 µM | COLO 205 > 100 µM | DU-145 > 100 µM | EKVX > 100 µM | HCC 2998 > 100 µM | HCT-116 > 100 µM | HL-60 > 100 µM | HOP-62 > 100 µM | HOP-92 > 100 µM | HT-29 > 100 µM | Hs-578T > 100 µM | IGROV-1 > 100 µM | K562 > 100 µM | KM12 > 100 µM | LOX IMVI > 100 µM | M14 > 100 µM | MCF7 > 100 µM | MDA-MB-231 > 100 µM | MDA-MB-435 > 100 µM | MDA-N > 100 µM | MOLT-4 > 100 µM | Malme-3M > 100 µM | NCI-H226 > 100 µM | NCI-H23 > 100 µM | NCI-H460 > 100 µM | NCI-H522 > 100 µM | NCI/ADR-RES > 100 µM | OVCAR-3 > 100 µM | OVCAR-4 > 100 µM | OVCAR-5 > 100 µM | OVCAR-8 > 100 µM | PC-3 > 100 µM | RPMI-8226 > 100 µM | RXF 393 > 100 µM | SF-268 > 100 µM | SF-295 > 100 µM | SF-539 > 100 µM | SK-MEL-28 > 100 µM | SK-MEL-2 > 100 µM | SK-MEL-5 > 100 µM | SN12C > 100 µM | SNB-19 > 100 µM | SR > 100 µM | SW-620 > 100 µM | T47D > 100 µM | TK-10 > 100 µM | U-251 > 100 µM | UACC-257 > 100 µM | UACC-62 > 100 µM | UO-31 > 100 µM
> 100 µM: HCT-15

O=C(O)CNC(=O)c1ccc(-c2ccccc2)cc1
inactive: 786-0 > 100 µM | A498 > 100 µM | A549 > 100 µM | ACHN > 100 µM | CAKI-1 > 100 µM | CCRF-CEM > 100 µM | COLO 205 > 100 µM | DU-145 > 100 µM | EKVX > 100 µM | HCC 2998 > 100 µM | HCT-116 > 100 µM | HL-60 > 100 µM | HOP-62 > 100 µM | HOP-92 61.1 µM | Hs-578T 75.7 µM | IGROV-1 > 100 µM | K562 > 100 µM | KM12 > 100 µM | LOX IMVI > 100 µM | M14 > 100 µM | MCF7 > 100 µM | MDA-MB-231 > 100 µM | MDA-MB-435 > 100 µM | MDA-N > 100 µM | MOLT-4 > 100 µM | Malme-3M > 100 µM | NCI-H226 > 100 µM | NCI-H23 > 100 µM | NCI-H460 > 100 µM | NCI-H522 > 100 µM | NCI/ADR-RES > 100 µM | OVCAR-3 > 100 µM | OVCAR-5 > 100 µM | OVCAR-8 > 100 µM | PC-3 > 100 µM | RPMI-8226 > 100 µM | RXF 393 > 100 µM | SF-268 > 100 µM | SF-295 > 100 µM | SF-539 > 100 µM | SK-MEL-28 > 100 µM | SK-MEL-2 > 100 µM | SK-MEL-5 > 100 µM | SK-OV-3 > 100 µM | SN12C > 100 µM | SNB-19 > 100 µM | SR > 100 µM | SW-620 > 100 µM | T47D > 100 µM | TK-10 > 100 µM | U-251 > 100 µM | UACC-257 > 100 µM | UACC-62 > 100 µM | UO-31 > 100 µM
> 100 µM: HCT-15

CCCCOP(=O)(OCCCC)C(NS(=O)(=O)c1ccccc1)(C(=O)OCC)C(F)(F)F (stereo unspecified)
inactive: 786-0 33.3 µM | A498 34.5 µM | A549 42.8 µM | ACHN 27.9 µM | CAKI-1 16.4 µM | CCRF-CEM 27.2 µM | COLO 205 19.5 µM | DU-145 45.3 µM | EKVX 30.1 µM | HCC 2998 > 100 µM | HCT-116 27.4 µM | HL-60 19.3 µM | HOP-62 22.7 µM | HOP-92 23.8 µM | HT-29 40 µM | Hs-578T 54.8 µM | IGROV-1 23.3 µM | K562 20.5 µM | KM12 31 µM | LOX IMVI 31.4 µM | M14 25.9 µM | MCF7 16.6 µM | MDA-MB-231 15.3 µM | MDA-MB-435 29.5 µM | MDA-N 37.2 µM | MOLT-4 20.2 µM | Malme-3M 23.1 µM | NCI-H226 27.6 µM | NCI-H23 33.6 µM | NCI-H460 37.6 µM | NCI/ADR-RES 26 µM | OVCAR-3 25.1 µM | OVCAR-4 27.7 µM | OVCAR-5 31 µM | OVCAR-8 40.1 µM | PC-3 30.1 µM | RPMI-8226 24.5 µM | RXF 393 26.7 µM | SF-268 43 µM | SF-295 25.8 µM | SF-539 19.5 µM | SK-MEL-28 34.1 µM | SK-MEL-5 18.1 µM | SK-OV-3 58.5 µM | SN12C 29.1 µM | SNB-19 29.2 µM | SNB-75 27.6 µM | SR 26.7 µM | T47D > 100 µM | TK-10 33.9 µM | U-251 34.8 µM | UACC-257 31.9 µM | UACC-62 43.9 µM | UO-31 > 100 µM
39.7 µM: HCT-15
